From patent US9802895B2, “Indole and benzimidazolecarboxamides as insecticides and acaricides” (BAYER CROPSCIENCE AKTIENGESELLSCHAFT, priority 2014, dated 2017)

How the values were obtained:
[1] = test system: greenhouse red spider mite (Tetranychus urticae); test: Tetranychus urticae spray test, OP-resistant (TETRUR); type: in vivo; settings: for efficacy: 100 g/ha, spray, after 6 days; for % efficacy: TETRUR, 6 dat
Protocol: Tetranychus urticae—Spray Test, OP-Resistant (TETRUR)
(§1) Solvent: 78.0 parts by weight of acetone • • 1.5 parts by weight of dimethylformamide
(§2) Emulsifier: alkylaryl polyglycol ether
(§3) To produce a suitable active compound formulation, 1 part by weight of active compound is dissolved using the specified parts by weight of solvent and made up with water containing an emulsifier concentration of 1000 ppm until the desired concentration is attained. To produce further test concentrations, the preparation is diluted with emulsifier-containing water.
Discs of bean leaves (Phaseolus vulgaris) infested by all stages of the greenhouse red spider mite (Tetranychus urticae) are sprayed with an active compound formulation of the desired concentration.
After 6 days, the efficacy in % is determined 100% means that all the spider mites have been killed; 0% means that none of the spider mites have been killed.
Tetranychus urticae—Spray Test; OP-Resistant (TETRUR)
After the desired period of time, the efficacy in % is determined 100% means that all the spider mites have been killed; 0% means that none of the spider mites have been killed.

[2] = test system: L1 larvae of the Australian sheep blowfly (Lucilia cuprina); test: Lucilia cuprina test (LUCICU); type: in vivo; settings: 100 ppm, after 2 days
Protocol: Lucilia cuprina Test (LUCICU) Solvent: dimethyl sulphoxide To produce a suitable active compound formulation, 10 mg of active compound are mixed with 0.5 ml of dimethyl sulphoxide, and the concentrate is diluted with water to the desired concentration. About 20 L1 larvae of the Australian sheep blowfly (Lucilia cuprina) are transferred into a test vessel containing minced horsemeat and the active compound preparation of the desired concentration. After 2 days, the kill in % is determined 100% means that all the larvae have been killed; 0% means that none of the larvae have been killed.

[3] = test system: engorged adult female cattle ticks (Boophilus microplus); test: Boophilus microplus injection test (BOOPMI inj); type: in vivo; settings: assessed after 7 days
Protocol: Boophilus microplus Injection Test (BOOPMI inj) Solvent: dimethyl sulphoxide To produce a suitable active compound formulation, 10 mg of active compound are mixed with 0.5 ml of solvent and the concentrate is diluted with solvent to the desired concentration. 1 μl of the active compound solution is injected into the abdomen of 5 engorged adult female cattle ticks (Boophilus microplus). The animals are transferred into dishes and kept in a climate-controlled room. The efficacy is assessed after 7 days by laying of fertile eggs. Eggs which are not visibly fertile are stored in a climate-controlled cabinet until the larvae hatch after about 42 days. An efficacy of 100% means that none of the ticks has laid any fertile eggs; 0% means that all the eggs are fertile.

[4] = test system: adult cat fleas (Ctenocephalides felis); test: Ctenocephalides felis oral test (CTECFE); type: in vivo; settings: 100 ppm, oral in cattle blood, after 2 days
Protocol: Ctenocephalides felis-Oral Test ([…]) Solvent: dimethyl sulphoxide To produce a suitable active compound formulation, 10 mg of active compound are mixed with 0.5 ml of dimethyl sulphoxide. Dilution with citrated cattle blood gives the desired concentration. About 20 unfed adult cat fleas (Ctenocephalides felis) are placed into a chamber which is closed at the top and bottom with gauze. A metal cylinder whose bottom end is closed with parafilm is placed onto the chamber. The cylinder contains the blood/active compound preparation, which can be imbibed by the fleas through the parafilm membrane. After 2 days, the kill in % is determined 100% means that all of the fleas have been killed; 0% means that none of the fleas have been killed.

[5] = test system: adult houseflies (Musca domestica); test: Musca domestica test (MUSCDO); type: in vivo; settings: 100 ppm, after 2 days
Protocol: Musca domestica Test (MUSCDO) Solvent: dimethyl sulphoxide To produce a suitable active compound formulation, 10 mg of active compound are mixed with 0.5 ml of dimethyl sulphoxide, and the concentrate is diluted with water to the desired concentration. Vessels containing a sponge treated with sugar solution and the active compound preparation of the desired concentration are populated with 10 adult houseflies (Musca domestica). After 2 days, the kill in % is determined. 100% means that all of the flies have been killed; 0% means that none of the flies have been killed.

[6] = test system: caterpillars of the armyworm (Spodoptera frugiperda); test: Spodoptera frugiperda spray test (SPODFR); type: in vivo; settings: for efficacy: 100 g/ha, spray, after 7 days; for % efficacy: SPODFR, 7 dat
Protocol: Spodoptera frugiperda—Spray Test (SPODFR) Solvent: 78.0 parts by weight of acetone • • 1.5 parts by weight of dimethylformamide Emulsifier: alkylaryl polyglycol ether To produce a suitable active compound formulation, 1 part by weight of active compound is dissolved using the specified parts by weight of solvent and made up with water containing an emulsifier concentration of 1000 ppm until the desired concentration is attained. To produce further test concentrations, the preparation is diluted with emulsifier-containing water. Leaf discs of maize (Zea mays) are sprayed with an active compound formulation of the desired concentration and, after drying, populated with caterpillars of the armyworm (Spodoptera frugiperda). After 7 days, the efficacy in % is determined 100% means that all the caterpillars have been killed; 0% means that no caterpillars have been killed. Spodoptera frugiperda—Spray Test (SPODFR) Solvent: 78.0 parts by weight of acetone • • 1.5 parts by weight of dimethylformamide Emulsifier: alkylaryl polyglycol ether To produce a suitable active compound formulation, 1 part by weight of active compound is dissolved using the specified parts by weight of solvent and made up with water containing an emulsifier concentration of 1000 ppm until the desired concentration is attained. To produce further test concentrations, the preparation is diluted with emulsifier-containing water. Leaf discs of maize (Zea mays) are sprayed with an active compound formulation of the desired concentration and, after drying, populated with caterpillars of the armyworm (Spodoptera frugiperda). After the desired period of time, the efficacy in % is determined. 100% means that all the caterpillars have been killed; 0% means that no caterpillars have been killed.

[7] = log P by HPLC (EEC directive 79/831 Annex V.A8); type: physicochemical; settings: HPLC, reversed-phase column (C18), 43° C., acidic range pH 2.7
Protocol: a) The determination of the M^+ by LC-MS in the acidic range is effected at pH 2.7, acetonitrile (contains 0.1% formic acid) and water as eluents; linear gradient from 10% acetonitrile to 95% acetonitrile, instrument: Agilent 1100 LC system, Agilent MSD system, HTS PAL. The log P values reported in the tables and Preparation Examples above were determined in accordance with EEC directive 79/831 Annex V.A8 by HPLC (High Performance Liquid Chromatography) using a reversed-phase column (C18). Temperature 43° C. The calibration is effected with unbranched alkan-2-ones (having 3 to 16 carbon atoms), for which the logP values are known.

[8] = test system: larvae of the mustard beetle (Phaedon cochleariae); test: Phaedon cochleariae spray test (PHAECO); type: in vivo; settings: 100 g/ha, after 7 days
Protocol: Phaedon cochleariae—Spray Test (PHAECO)
as §1, §2, §3
After 7 days, the efficacy in % is determined. 100% means that all the beetle larvae have been killed; 0% means that no beetle larvae have been killed.

[9] = test system: L2 larvae of the banded cucumber beetle (Diabrotica balteata); test: Diabrotica balteata drench test (DIABBA); type: in vivo; settings: 8 dat
Protocol: Diabrotica balteata—Drench Test (DIABBA) Solvent: 7 parts by weight of dimethylformamide Emulsifier: 2 parts by weight of alkylaryl polyglycol ether To produce a suitable active compound formulation, 1 part by weight of active compound is mixed with the specified amounts of solvent and emulsifier, and the concentrate is diluted with water to the desired concentration, it being necessary to include the volume of soil which is drenched in the calculation. It should be ensured that a concentration of 40 ppm of emulsifier in the soil is not exceeded. To produce further test concentrations, water is used for dilution. […] After one day, 25 L2 larvae of the banded cucumber beetle (Diabrotica balteata) are added. After 8 days, the efficacy in % is determined 100% means that all 5 plants have germinated and grown; 0% means that none of the plants has emerged.

| Structure (SMILES) | efficacy [1] | % efficacy ([1]; 4 g/ha) | % efficacy ([1]; 20 g/ha) | efficacy (kill in %) [2] | efficacy (laying of fertile eggs) [3] | efficacy (kill in %) [4] | efficacy (kill in %) [5] | efficacy [6] | % efficacy ([6]; 0.8 g/ha) | % efficacy ([6]; 4 g/ha) | log P [7] | efficacy [8] | % efficacy ([9]; 4 ppm) | % efficacy ([9]; 20 ppm) |
| --- | --- | --- | --- | --- | --- | --- | --- | --- | --- | --- | --- | --- | --- | --- |
| CCn1c(C(=O)NC(c2cc(Cl)cc(C(F)(F)F)c2)C(F)(F)F)cc2cc(C(=O)NC3(C(N)=S)CC3)c(Cl)cc21 (stereo not drawn) [I-22] | 100% | 100% | 100% | 100% | 100% | 100% | 100% | 100% | 100% | 100% | 4.11 | 100% | 50% | 100% |
| CCn1c(C(=O)NC(c2cc(F)c(Cl)c(F)c2F)C(F)(F)F)cc2cc(C(=O)NC3(C(N)=S)CC3)c(Cl)cc21 (stereo not drawn) [I-31] | 100% |  |  | 100% | 100% | 100% | 100% | 100% |  |  | 4.02 | 100% |  |  |
| CCn1c(C(=O)NC(c2cc(F)c(Cl)c(Cl)c2)C(F)(F)F)cc2cc(C(=O)NC3(C(N)=S)CC3)c(Cl)cc21 (stereo not drawn) [I-09] | 100% |  |  | 100% | 100% | 100% | 100% | 100% |  |  | 4.02 | 100% |  |  |
| CCn1c(C(=O)NC(c2cc(Cl)c(F)c(Cl)c2)C(F)(F)F)cc2cc(C(=O)NC3(C(N)=S)CC3)c(Cl)cc21 (stereo not drawn) [I-02] | 100% |  |  | 100% | 100% | 100% | 100% | 100% | 100% | 100% | 4.04 | 100% |  |  |
| CCn1c(C(=O)NC(c2ccc(F)c(Cl)c2)C(F)(F)F)cc2cc(C(=O)NC3(C(N)=S)CC3)c(Cl)cc21 (stereo not drawn) [I-04] | 100% |  |  | 100% | 100% | 100% | 100% | 100% | 100% | 100% | 3.57 | 100% |  |  |
| CCn1c(C(=O)NC(c2cc(Cl)c(F)c(Cl)c2F)C(F)(F)F)cc2cc(C(=O)NC3(C(N)=S)CC3)c(Cl)cc21 (single isomer, unassigned) [I-17] | 100% |  |  | 90% | 100% | 100% | 80% | 100% |  |  | 4.27; | 100% |  |  |
| CCn1c(C(=O)NC(c2cc(F)c(Cl)c(Cl)c2F)C(F)(F)F)cc2cc(C(=O)NC3(C(N)=S)CC3)c(Cl)cc21 (stereo not drawn) [I-27] | 100% |  |  | 100% | 100% | 100% | 100% | 100% |  |  | 4.28 | 100% |  |  |
| CCn1c(C(=O)NC(c2ccc(F)c(C(F)(F)F)c2)C(F)(F)F)cc2cc(C(=O)NC3(C(N)=S)CC3)c(Cl)cc21 (stereo not drawn) [I-03] | 90% |  |  | 100% | 100% | 100% | 100% | 100% | 100% | 100% | 3.70 | 100% |  |  |
| CCn1c(C(=O)NC(c2cc(Cl)cc(Cl)c2)C(F)F)cc2cc(C(=O)NC3(C(N)=S)CC3)c(Cl)cc21 (stereo not drawn) [I-24] | 100% |  |  | 100% | 100% | 100% | 80% | 100% |  |  | 3.65 | 100% |  |  |
| CCn1c(C(=O)NC(c2cc(Cl)c(F)c(F)c2F)C(F)(F)F)cc2cc(C(=O)NC3(C(N)=S)CC3)c(Cl)cc21 (stereo not drawn) [I-26] | 100% |  |  | 100% | 100% | 100% | 100% | 100% |  |  | 3.99 | 100% |  |  |
| CCn1c(C(=O)NC(c2cc(F)cc(C(F)(F)F)c2)C(F)(F)F)cc2cc(C(=O)NC3(C(N)=S)CC3)c(Cl)cc21 (stereo not drawn) [I-10] | 100% |  |  | 100% | 100% | 100% | 100% | 100% | 100% | 100% | 3.81 | 100% |  |  |
